The subject of experiment [1] is KB. The experiment is described as follows: Cytotoxicity against drug-resistant human KB cells in absence of vinblastine. Format: functional, cell-based.
Experiment [2] concerns KB. Briefly: Cytotoxicity against human KB cells. The experiment is classed as functional, cell-based.
Experiment [3] deals with Human immunodeficiency virus type 1 reverse transcriptase (Human immunodeficiency virus 1) (UniProt Q72547). Briefly: Inhibition of HIV1 reverse transcriptase.
A short description of experiment [4]: Cytotoxicity against human BC1 cells. The experiment is classed as functional, cell-based.
Experiment [5] deals with KB. The experiment is described as follows: Cytotoxicity against drug-resistant human KB cells in presence of vinblastine. Format: functional, cell-based.
In the next experiment the test system is Col2. Briefly: Cytotoxicity against human Col2 cells. The experiment is classed as functional, cell-based.

Our source for the IC50 and Activity values is ChEMBL document CHEMBL1150964, “Munchiwarin, a prenylated chalcone from crotalaria trifoliastrum” (J Nat Prod, 1998).

Converted amounts (≈) assume the structure as drawn. The source made the active and inactive calls. No cut-off for these calls is given here.

In general, IC50 refers to the concentration that inhibits the measured activity by half. Consider `CC(C)=CCC1=C/C(=C(O)\C=C\c2ccc(O)cc2)C(=O)C(CC=C(C)C)(CC=C(C)C)C1=O` [MUNCHIWARIN], for which the IC50 in the experiment with KB [1] was found to be 14 µg/mL (≈ 30.4 µM); with KB [2], 11 µg/mL (≈ 23.9 µM); in experiment [4], 9 µg/mL (≈ 19.5 µM); with KB [5], 13 µg/mL; in the experiment with Col2, 9 µg/mL (≈ 19.5 µM). For the same compound, the result in experiment [3] was inactive.
